{"source": "patent US8283373B2", "about": "“Inhibitors of cytosolic phospholipase A2” (Pfizer Inc., priority 2005, dated 2012)", "key": {"[1]": {"tested_on": "experimental autoimmune encephalomyelitis (EAE)", "experiment": "Experimental autoimmune encephalomyelitis (EAE) model of multiple sclerosis", "format": "in vivo, mouse", "conditions": "administered from the time of immunization, or in mice with or close to EAE", "description": "Six groups of B6 mice were immunized with MOG/CFA and injected with pertussis toxin to induce experimental autoimmune encephalomyelitis (EAE), an animal model of Multiple sclerosis. Three groups of mice were treated with vehicle, 4-{3-[1-benzhydryl-5-chloro-2-(2-{[(2,6-dimethylbenzyl)sulfonyl]amino}ethyl)-1H-indol-3-yl]propyl}benzoic acid (Compound A), or 4-{2-[1-benzhydryl-5-chloro-2-(2-{[(3,4-dichlorobenzyl)sulfonyl]amino}-ethyl)-1H-indol-3-yl]ethoxy}benzoic acid (Compound B) from the day of Immunization (orally, 100 mg/kg, twice/day). Another three groups of mice were treated with vehicle, Compound A or Compound B starting on the day of EAE onset (day 15) (orally, 100 mg/kg, twice/day). […] The results are shown in the Table below, wherein mean clinical score is a mean of clinical evaluation of each animal for that particular day.\nAnimals are Scored as Follows:\n• 0—no clinical signs of EAE (no paralysis) • 1—paralysis of tail • 2—paralysis of tail and partial hind leg paralysis • 3—paralysis of tail and complete hind leg paralysis • 4—paralysis of tail, complete hind leg paralysis and a partial front leg paralysis • 5—moribund animal (all four limbs paralyzed, lack of responsiveness, these mice were immediately euthanized).\nIn addition, the compounds of Examples 14 and 25 were also found to be efficacious in the mouse experimental autoimmune encephalomyelitis (EAE) model of multiple sclerosis. As shown by the data in the Table below, these compounds led to a delayed onset of disease and reduced severity of disease when administered orally in doses as low as 2.5 mg/kg."}, "[2]": {"tested_on": "FeCl3-induced arterial thrombosis", "experiment": "FeCl3-induced model of arterial thrombosis", "format": "in vivo", "conditions": "rat, 25 mg/kg oral gavage 2 h before FeCl3 injury", "description": "Two hours prior to induction of vascular injury, Sprague Dawley outbreed rats (80-100 gram of body weight) received 4-(3-{5-chloro-1-(diphenylmethyl)-2-[2-({[2-fluoro-6-(trifluoromethyl)benzyl]sulfonyl}amino)ethyl]-1H-indol-3-yl}propyl)benzoic acid (Example 14) or 4-(3-{5-chloro-1-(diphenylmethyl)-2-[2-({[2-(trifluoromethoxy)benzyl]sulfonyl}amino)ethyl]-1H-indol-3-yl}propyl)benzoic acid (Example 25) at a dose of 25 mg/kg by oral gavage. The total volume of gavage was 0.5 ml. The control group of animals had been treated with only vehicle. Fifteen minutes before vascular injury rats were anesthetized by an intramuscular injection of a ketamine/xylazyne mixture. Following anesthesia the left carotid artery was dissected and exposed for further measurements. For induction of prothrombotic injury, a round piece of filter paper (2 mm in diameter) soaked in 10% of FeCl3 solution was applied onto the wall of the exposed vessel. After 5 minutes the filter paper was removed and the 1PRB perivasular Doppler flow probe (Transonic Systems Inc.) was secured around the carotid artery to measure blood flow. Blood flow was recorded for a total period of 30 minutes using Transonic Flow Meter (model TS420, Transonic Systems Inc.) and Windaq data acquisition software."}, "[3]": {"tested_on": "TXB2", "experiment": "Rat Whole Blood Assay (A23187-stimulated TXB2)", "format": "cell-based", "conditions": "Rattus norvegicus; A23187 5 μM", "summary_of_the_method": "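Heparinized male Sprague-Dawley rat blood pre-incubated 15 min at 37 °C with compound or DMSO, then stimulated with 5 μM (final) A23187 for 10 min at 37 °C. Stopped with 20 mM EDTA; TXB2 in methanol-extracted plasma measured by ELISA.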"}, "[4]": {"tested_on": "Human platelet aggregation", "experiment": "Platelet Function Analyzer (PFA-100) study", "format": "cell-based", "conditions": "whole human blood", "description": "Human platelet aggregation was studied using the platelet function analyzer (PFA-100®). Human blood was collected from volunteers who had denied taking any platelet inhibitory medications over the previous two weeks. Blood was collected in 3.2% sodium citrate Vacutainer tubes (Becton Dickinson). Tubes were inverted 5 times and the blood was transferred to 15 ml polypropylene conical tubes. […] Tubes were inverted 10 times to mix, and allowed to sit at room temperature for 10 minutes prior to run in PFA-100. The manufacturers protocol was followed for the PFA-100 using Collagen/Epinephrine cartridges (0.5% DMSO alone in whole blood gave closure times of 125+/−13.9 seconds). Maximum closure time is 300 seconds, as set by the manufacturer.\nAll compounds were efficacious in the platelet function assay."}, "[5]": {"biological_target": "T1, cPLA2α (Homo sapiens, UniProt P47712)", "T1 sequence (P47712 1-749)": "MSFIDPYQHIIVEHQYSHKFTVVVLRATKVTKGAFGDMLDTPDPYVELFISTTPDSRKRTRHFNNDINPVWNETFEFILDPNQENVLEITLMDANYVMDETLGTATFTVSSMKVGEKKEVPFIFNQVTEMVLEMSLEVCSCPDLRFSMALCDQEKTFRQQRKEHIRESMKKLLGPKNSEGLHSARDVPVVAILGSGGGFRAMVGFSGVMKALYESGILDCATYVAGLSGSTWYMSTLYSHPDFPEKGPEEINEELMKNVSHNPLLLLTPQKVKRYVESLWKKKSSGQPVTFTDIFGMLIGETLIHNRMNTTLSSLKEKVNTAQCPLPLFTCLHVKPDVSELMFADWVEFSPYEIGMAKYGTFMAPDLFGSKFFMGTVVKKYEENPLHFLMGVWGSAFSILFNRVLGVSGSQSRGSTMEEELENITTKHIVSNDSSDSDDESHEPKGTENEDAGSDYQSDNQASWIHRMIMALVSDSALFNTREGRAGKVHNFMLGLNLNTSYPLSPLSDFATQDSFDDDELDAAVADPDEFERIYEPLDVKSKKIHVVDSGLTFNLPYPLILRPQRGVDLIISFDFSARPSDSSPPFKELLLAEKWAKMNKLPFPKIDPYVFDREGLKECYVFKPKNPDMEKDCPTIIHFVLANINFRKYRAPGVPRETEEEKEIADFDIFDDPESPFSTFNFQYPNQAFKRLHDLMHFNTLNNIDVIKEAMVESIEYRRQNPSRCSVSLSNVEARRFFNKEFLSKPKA", "experiment": "GLU Micelle Assay", "format": "biochemical", "summary_of_the_method": "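Fluorogenic micelle assay with 1 μg/ml cPLA2α and 90 μM GLU substrate plus 120 μM DTPC in 940 μM Triton X-100, 50 mM Hepes pH 7.4, 0.3 mM EDTA, 1 mM CaCl2, 300 mM KCl. Fluorescence (ex 355/em 460) was read every 4 min for 84 min. Percent inhibition came from slopes relative to positive and negative controls.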"}, "[6]": {"tested_on": "serum thromboxane B2", "experiment": "Thromboxane B2 levels in rats with FeCl3 induced thrombosis", "format": "in vivo, rat", "conditions": "rats subjected to ferric chloride injury, ELISA", "description": "Blood was collected from rats that were dosed with vehicle, the compound of Example 14 or the compound of Example 25, and subjected to the ferric chloride Injury protocol above. Blood was collected from the vena cava and blood coagulation was allowed to take place for 1 hour at 37 degree Celsius. Serum was then isolated and serum thromboxane B2 levels were determined by ELISA."}, "[7]": {"tested_on": "serum thromboxane B2", "experiment": "Thromboxane B2 levels in the ApoE KO mouse model", "format": "in vivo", "conditions": "ApoE KO mice, 10 mg/kg by oral gavage; vehicle 267.9±34.3", "description": "Blood was collected through the retro-orbital siunus and left to coagulate at 37° C. for one hour. Serum was then isolated and assayed for thromboxane B2 by ELISA.\nIn a separate experiment, ApoE KO mice were dosed with vehicle or the compound of Example 25 at 10 mg/kg by oral gavage. Blood was collected through the retro-orbital siunus and left to coagulate at 37° C. for one hour. Serum was then isolated and assayed for thromboxane B2 by ELISA."}}, "data": [{"smiles": "O=C(O)c1ccc(CCCc2c(CCNS(=O)(=O)Cc3c(F)cccc3C(F)(F)F)n(C(c3ccccc3)c3ccccc3)c3ccc(Cl)cc23)cc1", "note": "[Example 14, 4-(3-{5-chloro-1-(diphenylmethyl)-2-[2-({[2-fluoro-6-(trifluoromethyl)benzyl]sulfonyl}amino)ethyl]-1H-indol-3-yl}propyl)benzoic acid]", "values": [{"measurement": "prevention of EAE / reduction of clinical severity", "setting": "[1]", "result": "can prevent EAE"}, {"measurement": "blood flow and thrombus formation (FIG. 2)", "setting": "[2]", "result": "improved blood flow and reduction of thrombus formation"}, {"measurement": "IC50", "setting": "[3]", "result": 20, "unit": "nM"}, {"measurement": "platelet aggregation in human blood, in vitro (PFA-100, FIG. 1)", "setting": "[4]", "result": "inhibition of platelet aggregation"}, {"measurement": "PFA-100 closure time", "setting": "[4]; Collagen/Epinephrine cartridges, 1.25 μg/ml", "result": "increased closure time"}, {"measurement": "IC50", "setting": "[5]", "result": 30, "unit": "nM"}, {"measurement": "serum thromboxane B2 levels (FIG. 3)", "setting": "[6]", "result": "reduction of serum thromboxane B2 levels"}]}, {"smiles": "O=C(O)c1ccc(CCCc2c(CCNS(=O)(=O)CCc3ccccc3C(F)(F)F)n(C(c3ccccc3)c3ccccc3)c3ccc(Cl)cc23)cc1", "note": "[Example 15, 4-[3-(5-chloro-1-(diphenylmethyl)-2-{2-[({2-[2-(trifluoromethyl)phenyl]ethyl}sulfonyl)amino]ethyl}-1H-indol-3-yl)propyl]benzoic acid]", "values": [{"measurement": "blood flow and thrombus formation (FIG. 2)", "setting": "[2]", "result": "improved blood flow and reduction of thrombus formation"}, {"measurement": "IC50", "setting": "[3]", "result": 120, "unit": "nM"}, {"measurement": "IC50", "setting": "[5]", "result": 68, "unit": "nM"}]}, {"smiles": "O=C(O)c1ccc(CCCc2c(CCNS(=O)(=O)Cc3ccccc3OC(F)(F)F)n(C(c3ccccc3)c3ccccc3)c3ccc(Cl)cc23)cc1", "note": "[Example 25, 4-(3-{5-chloro-1-(diphenylmethyl)-2-[2-({[2-(trifluoromethoxy)benzyl]sulfonyl}amino)ethyl]-1H-indol-3-yl}propyl)benzoic acid]", "values": [{"measurement": "prevention of EAE / reduction of clinical severity", "setting": "[1]", "result": "can prevent EAE"}, {"measurement": "IC50", "setting": "[3]", "result": 30, "unit": "nM"}, {"measurement": "platelet aggregation in human blood, in vitro (PFA-100, FIG. 1)", "setting": "[4]", "result": "inhibition of platelet aggregation"}, {"measurement": "efficacy in PFA-100 platelet function assay", "setting": "[4]; at concentrations as low as 0.3 μg/ml", "result": "efficacious"}, {"measurement": "IC50", "setting": "[5]", "result": 13, "unit": "nM"}, {"measurement": "serum Thromboxane concentration", "setting": "[7]", "result": "9.4 ± 5.0", "unit": "ng/mL"}, {"measurement": "serum thromboxane B2 levels (FIG. 3)", "setting": "[6]", "result": "reduction of serum thromboxane B2 levels"}]}]}
